Measured values reported in patent publication US20130266557A1, “METHODS FOR TREATMENT OF A SARCOMA USING AN EPIMETABOLIC SHIFTER (COENZYME Q10)” (priority 2009, published 2013).
“Also recorded” adds a separate entry of the source.

Tested on: NCIES0808 cells
Assay: Two-dimensional gel analysis with MS identification
Format: cell-based, human
Procedure: NCIES0808 cells were plated in T25 flasks in experimental conditions similar to those described in the PCR array section. At the end of the treatment time, cells were trypsinized as described in the PCR array section and washed twice in ice cold TBS and snap frozen in liquid nitrogen. Further processing for Western blots was carried out at UMass.
Before isoelectric focusing (IEF), samples were solubilized in 40 mM Tris, 7 M urea, 2 M thiourea, and 1% C7 zwitterionic detergent, reduced with tributylphosphine, and alkylated with 10 mM acrylamide for 90 min at room temperature. After the sample was run through a 10-kDa cutoff Amicon Ultra device with at least 3 volumes of the resuspension buffer, consisting of 7 M urea, 2 M thiourea, and 2% CHAPS to reduce the conductivity of the sample. One hundred micrograms of protein were subjected to IEF on 11-cm pH 3 to 10, pH 4 to 7 or pH 6 to 11 immobilized pH gradient strips (GE, Amersham, USA) to 100,000 volts hour. After IEF, immobilized pH gradient strips were equilibrated in 6 M urea, 2% SDS, 50 mM Tris-acetate buffer, pH 7.0, and 0.01% bromphenol blue and subjected to SDS-polyacrylamide gel electrophoresis on 8 to 16% Tris-HCl Precast Gel, 1 mm (Bio-Rad, USA). The gels were run in duplicate. They were fixed, stained in SYPRO Ruby, 80 mL/gel (Invitrogen, USA) and imaged on Fuji FLA-5100 laser scanner.
Analysis of all gel images was performed using Progenesis Discovery and Pro (Nonlinear Dynamics Inc., Newcastle upon Tyne, UK). After spot detection, matching, background subtraction, normalization, and filtering, data for SYPRO Ruby gel images was exported. […] Manual annotation of each statistically significant spots was performed to assure accurate detection.
Tryptic peptides extracted from respective gel plugs were dried down to a 10 ul volume and acidified with 1-2 ul of 1% TFA. Samples were loaded on an uC18 Zip Tip (Millipore, Corp) after pre-equilibration in 0.1% TFA. After washing with 2×10 ul aliquots of 0.1% TFA, samples were deposited directly onto the MALDI sample target using 1 ul of Matrix solution 15 mg/ml of 2,5 Dihydroxybenzoic Acid (MassPrep DHB, Waters Corp.) in 50:50 Acetonitrile: 0.1% TFA. Samples were allowed to air dry prior to insertion into the mass spectrometer. Analysis were performed on a Kratos Axima QIT (Shimadzu Instruments) matrix-assisted-laser desorption/ionization (MALDI) mass spectrometer. Peptides were analyzed in positive ion mode in mid mass range (700-3000 Da). The instrument was externally calibrated with Angiotensin II (1046.54), P14R (1533.86) and ACTH (18-39) 2465.20 Da. Precursors were selected based on signal intensity at a mass resolution width of 250 for CID fragmentation using Argon as the collision gas. Database searches were performed in house with Mascot (Matrix Sciences, Ltd.) using the Peptide Mass Fingerprint program for MS data and the MS/MS Ion Search program for CID data. All identifications were confirmed or established with CID (MS/MS) data.
NCIES0808 cells treated for 3, 6 and 24 hours were subjected to 2-D gel electrophoreses and were analyzed to identify protein-level changes relative to the control media samples. A comparative analysis of spots across multiple duplicated gels was performed, comparing the “control media sample” against all of the treated samples at both the 50 uM and 100 uM doses. The analysis included the identification of spot changes over the time course due to an increase, decrease, or post-translational modification.

[1] = 24 hours, 50 uM Q10, − = down, 1 = no change
[2] = 24 hours, 100 uM Q10, − = down, 1 = no change

With Coenzyme Q10 [CoQ10] the “Spot 314, proteasome alpha 3: modulation vs control media” value [1] was 1.1, the “Spot 363, ATP dependent helicase II: modulation vs control media” value [1] was 1.2 and the “Spot 369, eukaryotic translation elongation factor 1 delta: modulation vs control media” value [1] was 1.1. The “Spot 372, lamin B1: modulation vs control media” value [1] was 1, the “Spot 387, SMT 3 suppressor of mif two 3 homolog 2: modulation vs control media” value [1] was 1 and the “Spot 388, heat shock protein 27 kD: modulation vs control media” value [1] was 1.1. For the same substance, the “Spot 396, hnRNP C1/C2: modulation vs control media” value [1] was −1.4, the “Spot 436, eukaryotc translation elongation factor 1 beta 2: modulation vs control media” value [1] was 1 and the “Spot 490, Similar to HSPC-300: modulation vs control media” value [1] was −1.2. For the same substance, the “Spot 506, heat shock protein 27 kD: modulation vs control media” value [1] was −1.2, the “Spot 511, eukaryotic translation elongation factor 1 delta: modulation vs control media” value [1] was 1 and the “Spot 524, eukaryotic translation elongation factor 1 delta: modulation vs control media” value [1] was 1. The “Spot 532, putative c-myc-responsive isoform 1: modulation vs control media” value [1] was 1, the “Spot 557, lamin B1: modulation vs control media” value [1] was 1 and the “Spot 575, ER lipid raft associated 2 isoform 1; beta actin: modulation vs control media” value [1] was 1.1. For the same substance, the “Spot 583, Dismutase Cu/Zn Superoxide: modulation vs control media” value [1] was 1.1, the “Spot 622, DNA directed DNA polymerase epislon 3; (canopy 2 homolog): modulation vs control media” value [1] was −1.1 and the “Spot 646, signal sequence receptor 1 delta: modulation vs control media” value [1] was 1. The “Spot 16, alpha 2-HS glycoprotein (Bos Taurus, cow): modulation vs control media” value [2] was 5.9, the “Spot 130, ribosomal proten P2; histone H2A: modulation vs control media” value [2] was −4.2 and the “Spot 180, beta actin: modulation vs control media” value [2] was 3. For the same substance, the “Spot 234, hnRNP C1/C2: modulation vs control media” value [2] was −2.6, the “Spot 244, heat shock protein 70 kD: modulation vs control media” value [2] was 1.7 and the “Spot 275, microtubule associated protein: modulation vs control media” value [2] was −1.8. For the same substance, the “Spot 311, beta tubulin: modulation vs control media” value [2] was 2.6, the “Spot 314, proteasome alpha 3: modulation vs control media” value [2] was −2.2 and the “Spot 363, ATP dependent helicase II: modulation vs control media” value [2] was 2.1. The “Spot 369, eukaryotic translation elongation factor 1 delta: modulation vs control media” value [2] was −2, the “Spot 372, lamin B1: modulation vs control media” value [2] was −2.1 and the “Spot 387, SMT 3 suppressor of mif two 3 homolog 2: modulation vs control media” value [2] was −1.95. The “Spot 388, heat shock protein 27 kD: modulation vs control media” value [2] was −1.7, the “Spot 396, hnRNP C1/C2: modulation vs control media” value [2] was −2 and the “Spot 436, eukaryotc translation elongation factor 1 beta 2: modulation vs control media” value [2] was −1.9. The “Spot 490, Similar to HSPC-300: modulation vs control media” value [2] was 1.5, the “Spot 506, heat shock protein 27 kD: modulation vs control media” value [2] was −1.9 and the “Spot 511, eukaryotic translation elongation factor 1 delta: modulation vs control media” value [2] was −1.6. For the same substance, the “Spot 524, eukaryotic translation elongation factor 1 delta: modulation vs control media” value [2] was −1.7, the “Spot 532, putative c-myc-responsive isoform 1: modulation vs control media” value [2] was 1.4 and the “Spot 557, lamin B1: modulation vs control media” value [2] was −1.6. For the same substance, the “Spot 575, ER lipid raft associated 2 isoform 1; beta actin: modulation vs control media” value [2] was 1.6, the “Spot 583, Dismutase Cu/Zn Superoxide: modulation vs control media” value [2] was −1.3 and the “Spot 622, DNA directed DNA polymerase epislon 3; (canopy 2 homolog): modulation vs control media” value [2] was −1.6. For the same substance, the “Spot 646, signal sequence receptor 1 delta: modulation vs control media” value [2] was 1.5, the “Expression of proteosome subunits PSMA3, PSMB3, PSMB4 and ubiquitin enzymes (ubiquilin)” value (Ewing Sarcoma ES0808 cell line treated with CoQ10) was “sustained increases” and the “Ku70 (ATP dependent helicase II) level” value (Ewing Sarcoma ES0808 cell lines treated with CoQ10) was “decrease”. The “Proteins with observed increase in expression (value = protein), discussion A” value (Ewing Sarcoma cell line treated with CoQ10) was “ribosomal proteins (RPLP2); also recorded: eukaryotic translation initiation factors (EIF3G, EIF4A2); also recorded: eukaryotic translation elongation factors (EEF1B2, EEF1D); also recorded: heat shock proteins (HSP27, HSP60, HSP70); also recorded: dyenin” and the “hnRNP C1/C2 expression” value (persisted up to 24 hours) was “down-regulation”.
